Results reported in patent US20230085307A1, “PYRIDAZINONE COMPOUND AND HERBICIDE” (NISSAN CHEMICAL CORPORATION, priority 2019, published 2023).

Legend:
velvetleaf [1] = test: Test Example 4: herbicidal effect by soil treatment (Table 19, symbol M); format: in vivo, velvetleaf (Abutilon theophrasti); settings: amount of applied herbicide 320 g/ha
Outline: (§1)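 Three weeks of greenhouse growth at 25° C. to 30° C. followed a uniform surface spray of water-diluted emulsion at a predetermined herbicide amount. Seeds had been sown beforehand under about 1.5 cm of sterilized diluvial soil. Grading followed criteria set out in an earlier test.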

southern crabgrass [2] = test: Test Example 4: herbicidal effect by soil treatment (Table 19, symbol F); format: in vivo, southern crabgrass (Digitaria ciliaris); settings: amount of applied herbicide 320 g/ha
Outline: as §1

Italian ryegrass [3] = test: Test Example 4: herbicidal effect by soil treatment (Table 19, symbol K); format: in vivo, Italian ryegrass (Lolium multiflorum); settings: amount of applied herbicide 320 g/ha
Outline: as §1

blackgrass [4] = test: Test Example 4: herbicidal effect by soil treatment (Table 19, symbol J); format: in vivo, blackgrass (Alopecurus myosuroides); settings: amount of applied herbicide 320 g/ha
Outline: as §1

lambsquarters [5] = test: Test Example 4: herbicidal effect by soil treatment (Table 19, symbol O); format: in vivo, lambsquarters (Chenopodium album); settings: amount of applied herbicide 320 g/ha
Outline: as §1

windgrass [6] = test: Test Example 4: herbicidal effect by soil treatment (Table 19, symbol L); format: in vivo, windgrass (Apera spica-venti); settings: amount of applied herbicide 320 g/ha
Outline: as §1

redroot pigweed [7] = test: Test Example 4: herbicidal effect by soil treatment (Table 19, symbol N); format: in vivo, redroot pigweed (Amaranthus retroflexus); settings: amount of applied herbicide 320 g/ha
Outline: as §1

rice flat sedge = test: Test Example 3: herbicidal effect by foliage application, Wagner pot (Table 18, symbol E); format: in vivo, rice flat sedge (Cyperus iria); settings: amount of applied herbicide 320 g/ha
Outline: (§2)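 Plants were sown in alluvial soil held under 0.1–0.5 cm standing water and grown 14 days in a greenhouse at 25–30 °C. An emulsifiable formulation, water-diluted to the set dose, was then sprayed onto the foliage, and effects were scored three weeks later using previously defined criteria.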

Chinese sprangletop = test: Test Example 3: herbicidal effect by foliage application, Wagner pot (Table 18, symbol D); format: in vivo, chinese sprangletop (Leptochloa chinensis); settings: amount of applied herbicide 320 g/ha
Outline: as §2

persian speedwell [8] = test: Test Example 4: herbicidal effect by soil treatment (Table 19, symbol R); format: in vivo, Persian speedwell (Veronica persica); settings: amount of applied herbicide 320 g/ha
Outline: as §1

wild oat [9] = test: Test Example 4: herbicidal effect by soil treatment (Table 19, symbol I); format: in vivo, wild oat (Avena fatua); settings: amount of applied herbicide 320 g/ha
Outline: as §1

green foxtail [10] = test: Test Example 4: herbicidal effect by soil treatment (Table 19, symbol G); format: in vivo, green foxtail (Setaria viridis); settings: amount of applied herbicide 320 g/ha
Outline: as §1

chickweed [11] = test: Test Example 4: herbicidal effect by soil treatment (Table 19, symbol P); format: in vivo, common chickweed (Stellaria media); settings: amount of applied herbicide 320 g/ha
Outline: as §1

barnyard grass [12] = test: Test Example 3: herbicidal effect by foliage application, Wagner pot (Table 18, symbol H); format: in vivo, barnyard grass (Echinochloa crus-galli); settings: amount of applied herbicide 320 g/ha
Outline: as §2

barnyard grass [13] = test: Test Example 4: herbicidal effect by soil treatment (Table 19, symbol H); format: in vivo, barnyard grass (Echinochloa crus-galli); settings: amount of applied herbicide 320 g/ha
Outline: as §1

Italian ryegrass [14] = test: Test Example 5: herbicidal effect by foliage application, plastic box (Table 20, symbol K); format: in vivo, Italian ryegrass (Lolium multiflorum); settings: foliage application, 320 g/ha, evaluated 3 weeks after application
Outline: (§3)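 Plants sown in sterilized diluvial soil and grown 14 days in a greenhouse at 25° C to 30° C, then sprayed on the foliage with the compound's emulsion diluted in water to a predetermined herbicide amount. Injury to weeds and crops scored three weeks after application on a visual rating scale.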

barnyard grass [15] = test: Test Example 5: herbicidal effect by foliage application, plastic box (Table 20, symbol H); format: in vivo, barnyard grass (Echinochloa crus-galli); settings: foliage application, 320 g/ha, evaluated 3 weeks after application
Outline: as §3

redroot pigweed [16] = test: Test Example 5: herbicidal effect by foliage application, plastic box (Table 20, symbol N); format: in vivo, redroot pigweed (Amaranthus retroflexus); settings: foliage application, 320 g/ha, evaluated 3 weeks after application
Outline: as §3

velvetleaf [17] = test: Test Example 5: herbicidal effect by foliage application, plastic box (Table 20, symbol M); format: in vivo, velvetleaf (Abutilon theophrasti); settings: foliage application, 320 g/ha, evaluated 3 weeks after application
Outline: as §3

green foxtail [18] = test: Test Example 5: herbicidal effect by foliage application, plastic box (Table 20, symbol G); format: in vivo, green foxtail (Setaria viridis); settings: foliage application, 320 g/ha, evaluated 3 weeks after application
Outline: as §3

chickweed [19] = test: Test Example 5: herbicidal effect by foliage application, plastic box (Table 20, symbol P); format: in vivo, common chickweed (Stellaria media); settings: foliage application, 320 g/ha, evaluated 3 weeks after application
Outline: as §3

persian speedwell [20] = test: Test Example 5: herbicidal effect by foliage application, plastic box (Table 20, symbol R); format: in vivo, Persian speedwell (Veronica persica); settings: foliage application, 320 g/ha, evaluated 3 weeks after application
Outline: as §3

blackgrass [21] = test: Test Example 5: herbicidal effect by foliage application, plastic box (Table 20, symbol J); format: in vivo, blackgrass (Alopecurus myosuroides); settings: foliage application, 320 g/ha, evaluated 3 weeks after application
Outline: as §3

southern crabgrass [22] = test: Test Example 5: herbicidal effect by foliage application, plastic box (Table 20, symbol F); format: in vivo, southern crabgrass (Digitaria ciliaris); settings: foliage application, 320 g/ha, evaluated 3 weeks after application
Outline: as §3

lambsquarters [23] = test: Test Example 5: herbicidal effect by foliage application, plastic box (Table 20, symbol O); format: in vivo, lambsquarters (Chenopodium album); settings: foliage application, 320 g/ha, evaluated 3 weeks after application
Outline: as §3

wild oat [24] = test: Test Example 5: herbicidal effect by foliage application, plastic box (Table 20, symbol I); format: in vivo, wild oat (Avena fatua); settings: foliage application, 320 g/ha, evaluated 3 weeks after application
Outline: as §3

windgrass [25] = test: Test Example 5: herbicidal effect by foliage application, plastic box (Table 20, symbol L); format: in vivo, windgrass (Apera spica-venti); settings: foliage application, 320 g/ha, evaluated 3 weeks after application
Outline: as §3

COc1cccc(-c2sc3ccc(F)cc3c2-c2c(O)c(C)nn(C)c2=O)c1F [2-362]
herbicidal effect, M: velvetleaf (velvetleaf [1]): 0 (Herbicidal rate of 5% or less (almost no effect))
herbicidal effect, F: southern crabgrass (southern crabgrass [2]): 0 (Herbicidal rate of 5% or less (almost no effect))
herbicidal effect, K: Italian ryegrass (Italian ryegrass [3]): 2 (Herbicidal rate of 20% or more and less than 40%)
herbicidal effect, J: blackgrass (blackgrass [4]): 0 (Herbicidal rate of 5% or less (almost no effect))
herbicidal effect, O: lambsquarters (lambsquarters [5]): 3 (Herbicidal rate of 40% or more and less than 70%)
herbicidal effect, L: windgrass (windgrass [6]): 0 (Herbicidal rate of 5% or less (almost no effect))
herbicidal effect, N: redroot pigweed (redroot pigweed [7]): 1 (Herbicidal rate of 5% or more and less than 20%)
herbicidal effect on E: rice flat sedge (rice flat sedge): 3 (Herbicidal rate of 40% or more and less than 70%)
herbicidal effect on D: Chinese sprangletop (Chinese sprangletop): 0 (Herbicidal rate of 5% or less (almost no effect))
herbicidal effect, R: persian speedwell (persian speedwell [8]): 0 (Herbicidal rate of 5% or less (almost no effect))
herbicidal effect, I: wild oat (wild oat [9]): 0 (Herbicidal rate of 5% or less (almost no effect))
herbicidal effect, G: green foxtail (green foxtail [10]): 0 (Herbicidal rate of 5% or less (almost no effect))
herbicidal effect, P: chickweed (chickweed [11]): 0 (Herbicidal rate of 5% or less (almost no effect))
herbicidal effect on H: barnyard grass (barnyard grass [12]): 3 (Herbicidal rate of 40% or more and less than 70%)
herbicidal effect, H: barnyard grass (barnyard grass [13]): 0 (Herbicidal rate of 5% or less (almost no effect))

COCc1ccc(-c2oc3ccc(C)cc3c2-c2c(O)c(C)nn(C)c2=O)cc1 [9-061]
M: velvetleaf, herbicidal effect grade (velvetleaf [1]): 4 (Herbicidal rate of 70% or more and less than 90%)
K (Italian ryegrass) herbicidal effect grade (Italian ryegrass [14]): 5 (Herbicidal rate of 90% or more (almost completely withered))
H (barnyard grass) herbicidal effect grade (barnyard grass [15]): 5 (Herbicidal rate of 90% or more (almost completely withered))
N (redroot pigweed) herbicidal effect grade (redroot pigweed [16]): 5 (Herbicidal rate of 90% or more (almost completely withered))
F: southern crabgrass, herbicidal effect grade (southern crabgrass [2]): 5 (Herbicidal rate of 90% or more (almost completely withered))
M (velvetleaf) herbicidal effect grade (velvetleaf [17]): 5 (Herbicidal rate of 90% or more (almost completely withered))
K: Italian ryegrass, herbicidal effect grade (Italian ryegrass [3]): 5 (Herbicidal rate of 90% or more (almost completely withered))
G (green foxtail) herbicidal effect grade (green foxtail [18]): 5 (Herbicidal rate of 90% or more (almost completely withered))
P (chickweed) herbicidal effect grade (chickweed [19]): 5 (Herbicidal rate of 90% or more (almost completely withered))
R (persian speedwell) herbicidal effect grade (persian speedwell [20]): 5 (Herbicidal rate of 90% or more (almost completely withered))
O: lambsquarters, herbicidal effect grade (lambsquarters [5]): 5 (Herbicidal rate of 90% or more (almost completely withered))
L: windgrass, herbicidal effect grade (windgrass [6]): 0 (Herbicidal rate of 5% or less (almost no effect))
N: redroot pigweed, herbicidal effect grade (redroot pigweed [7]): 5 (Herbicidal rate of 90% or more (almost completely withered))
J (blackgrass) herbicidal effect grade (blackgrass [21]): 5 (Herbicidal rate of 90% or more (almost completely withered))
F (southern crabgrass) herbicidal effect grade (southern crabgrass [22]): 5 (Herbicidal rate of 90% or more (almost completely withered))
Herbicidal effect on E (rice flat sedge), foliage application (rice flat sedge): 5 (Herbicidal rate of 90% or more (almost completely withered))
O (lambsquarters) herbicidal effect grade (lambsquarters [23]): 5 (Herbicidal rate of 90% or more (almost completely withered))
Herbicidal effect on D (Chinese sprangletop), foliage application (Chinese sprangletop): 4 (Herbicidal rate of 70% or more and less than 90%)
R: persian speedwell, herbicidal effect grade (persian speedwell [8]): 5 (Herbicidal rate of 90% or more (almost completely withered))
I: wild oat, herbicidal effect grade (wild oat [9]): 2 (Herbicidal rate of 20% or more and less than 40%)
G: green foxtail, herbicidal effect grade (green foxtail [10]): 5 (Herbicidal rate of 90% or more (almost completely withered))
I (wild oat) herbicidal effect grade (wild oat [24]): 3 (Herbicidal rate of 40% or more and less than 70%)
P: chickweed, herbicidal effect grade (chickweed [11]): 4 (Herbicidal rate of 70% or more and less than 90%)
Herbicidal effect on H (barnyard grass), foliage application (barnyard grass [12]): 5 (Herbicidal rate of 90% or more (almost completely withered))
L (windgrass) herbicidal effect grade (windgrass [25]): 4 (Herbicidal rate of 70% or more and less than 90%)
H: barnyard grass, herbicidal effect grade (barnyard grass [13]): 5 (Herbicidal rate of 90% or more (almost completely withered))
